Assay results reported in patent publication US20120035076A1, “IRAK KINASE FAMILY AS NOVEL TARGET AND BIOMARKER FOR ALZHEIMER” (Vereniging Voor Christelijk Hoger Onderwijs …, priority 2009, published 2012).

Columns and labels:
[1] = test system: IL-6 secretion by human primary astrocytes; assay: IL-1β induced IL-6 secretion by human primary astrocytes (ELISA); format: cell-based; conditions: IL-1β 10 U/ml, 6 hours, inhibitor 1250, 2500 or 5000 nM
Source text: IL-1β has been implicated in both the initiation and propagation of neuroinflammatory changes seen in Alzheimer's disease patients. One of the main mechanisms of IL-1β is the induction of interleukin 6 (IL-6) secretion, which propagates the neuroinflammatory response in Alzheimer's disease patients. Using primary human adult astrocytes this inflammatory response as well as modulators (i.e. potential drugs for therapy) can be studied in vitro. […] In the presence of IL-1β (10 U/ml) these cells secrete IL-6 in the culture supernatant, which can be measured by ELISA. […] Cells were incubated with or without IL-1β (10 U/ml) for 6 hours in the presence of different concentration of IRAK1/4 inhibitor I (1250, 2500, or 5000 nM). IL-6 levels (pg/ml) in the culture supernatants were determined by ELISA. Shown are mean levels +/−S.D. of three replicate stimulations.

[2] = test system: IL-6 secretion by U373 astrocytoma cells; assay: IL-1β induced IL-6 secretion by U373 astrocytoma cells (ELISA); format: cell-based; conditions: IL-1β 10 U/ml, 6 hours, inhibitor 1250, 2500 or 5000 nM
[3] = FIG. 1, listed as IRAK1/4 inhibitor

O=C(Nc1nc2ccccc2n1CCN1CCOCC1)c1cccc([N+](=O)[O-])c1 [IRAK1/4 inhibitor I]
IL-6 secretion in culture supernatant ([1]; FIG. 1): dose-dependently inhibits IL-6 secretion | IL-6 secretion in culture supernatant [1, 3]: reduced | IL-6 secretion in culture supernatant ([2]; FIG. 1): dose-dependently inhibits IL-6 secretion | IL-6 secretion in culture supernatant [2, 3]: reduced
